Experimental data: ChEMBL document CHEMBL2021885, “Triphenylbutanamines: kinesin spindle protein inhibitors with in vivo antitumor activity” (J Med Chem, 2012)
Active and inactive are the calls of the source. No cut-off for these calls is given here.

Tests used:
BXPC-3 = assay: Antiproliferative activity against human BxPC3 cells after 72 hrs by Alamar blue assay; type: functional; conditions: BXPC-3, 72 h
[1] = molecular target: T1, Kinesin heavy chain isoform 5A (Homo sapiens) (UniProt Q12840); assay: Inhibition of MT-stimulated Kif5a ATPase activity
T1 sequence (whole entry): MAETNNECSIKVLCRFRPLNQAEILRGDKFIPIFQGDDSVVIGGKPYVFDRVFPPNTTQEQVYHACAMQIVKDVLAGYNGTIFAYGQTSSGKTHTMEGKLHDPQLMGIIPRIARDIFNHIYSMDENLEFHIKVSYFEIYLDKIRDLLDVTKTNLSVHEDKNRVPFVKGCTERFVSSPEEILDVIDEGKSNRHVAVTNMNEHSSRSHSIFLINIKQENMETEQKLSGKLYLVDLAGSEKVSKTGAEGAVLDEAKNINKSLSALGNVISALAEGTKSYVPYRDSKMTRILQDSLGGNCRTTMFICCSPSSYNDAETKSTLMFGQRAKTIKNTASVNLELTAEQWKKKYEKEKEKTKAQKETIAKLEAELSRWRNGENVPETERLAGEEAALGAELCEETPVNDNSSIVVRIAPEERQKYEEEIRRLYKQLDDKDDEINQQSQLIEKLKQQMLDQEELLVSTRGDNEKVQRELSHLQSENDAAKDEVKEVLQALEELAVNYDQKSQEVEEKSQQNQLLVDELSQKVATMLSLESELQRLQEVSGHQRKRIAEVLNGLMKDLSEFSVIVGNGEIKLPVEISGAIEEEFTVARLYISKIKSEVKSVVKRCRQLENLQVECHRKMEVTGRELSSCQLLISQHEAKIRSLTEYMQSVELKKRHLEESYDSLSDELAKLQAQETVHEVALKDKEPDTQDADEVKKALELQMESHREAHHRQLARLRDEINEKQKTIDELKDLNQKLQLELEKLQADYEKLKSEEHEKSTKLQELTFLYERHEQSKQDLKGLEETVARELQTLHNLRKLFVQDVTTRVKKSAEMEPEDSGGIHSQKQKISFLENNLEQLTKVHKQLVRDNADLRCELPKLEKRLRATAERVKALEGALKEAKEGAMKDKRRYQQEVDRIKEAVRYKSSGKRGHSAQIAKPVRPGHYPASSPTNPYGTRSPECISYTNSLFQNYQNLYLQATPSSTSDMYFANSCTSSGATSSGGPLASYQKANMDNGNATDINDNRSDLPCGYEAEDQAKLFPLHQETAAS

[2] = molecular target: T2, Kinesin-like protein KIF20A (Homo sapiens) (UniProt O95235); assay: Inhibition of MKLP2 ATPase activity
T2 sequence (whole entry): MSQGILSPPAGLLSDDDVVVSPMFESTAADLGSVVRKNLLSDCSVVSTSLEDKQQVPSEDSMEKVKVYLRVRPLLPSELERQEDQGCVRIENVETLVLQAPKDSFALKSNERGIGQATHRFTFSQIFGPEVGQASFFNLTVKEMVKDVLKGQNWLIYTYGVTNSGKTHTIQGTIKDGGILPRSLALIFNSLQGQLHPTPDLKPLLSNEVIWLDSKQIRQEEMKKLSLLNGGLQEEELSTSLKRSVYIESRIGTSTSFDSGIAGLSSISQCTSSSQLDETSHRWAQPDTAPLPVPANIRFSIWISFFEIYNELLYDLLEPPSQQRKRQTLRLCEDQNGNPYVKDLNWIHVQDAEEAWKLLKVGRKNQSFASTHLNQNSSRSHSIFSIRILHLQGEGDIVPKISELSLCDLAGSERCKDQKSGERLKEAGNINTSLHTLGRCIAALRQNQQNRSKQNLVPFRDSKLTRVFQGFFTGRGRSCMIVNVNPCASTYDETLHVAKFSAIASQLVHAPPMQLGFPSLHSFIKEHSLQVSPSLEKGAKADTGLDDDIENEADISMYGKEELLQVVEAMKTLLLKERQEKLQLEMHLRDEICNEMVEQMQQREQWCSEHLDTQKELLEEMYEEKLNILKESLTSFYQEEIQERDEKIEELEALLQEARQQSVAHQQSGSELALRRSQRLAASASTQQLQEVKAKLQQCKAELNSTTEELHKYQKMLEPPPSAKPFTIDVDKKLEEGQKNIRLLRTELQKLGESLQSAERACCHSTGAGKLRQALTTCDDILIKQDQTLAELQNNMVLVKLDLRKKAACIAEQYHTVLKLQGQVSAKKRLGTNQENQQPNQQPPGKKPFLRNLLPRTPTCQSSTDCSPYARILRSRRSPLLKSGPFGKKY

[3] = Turbidimetric solubility of the compound at pH 6; type: physicochemical; conditions: buffer
HCT-116 = assay: Antiproliferative activity against human HCT116 cells after 72 hrs by Alamar blue assay; type: functional; conditions: HCT-116, 72 h
[4] = Turbidimetric solubility of the compound at pH 7.4; type: physicochemical; conditions: buffer
NCI-H1299 = assay: Antiproliferative activity against human NCI-H1299 cells after 72 hrs by Alamar blue assay; type: functional; conditions: NCI-H1299, 72 h
[5] = Antitumor activity against human LXFS 538 cells xenografted in nu/nu nude Charles river mouse assessed as tumor volume doubling time at 20 mg/kg on days 0, 2 and 4 and 15 mg/kg on days 17, 19, 24 measured after 28 days (reference value: 8.8 days); type: functional
[6] = Turbidimetric solubility of the compound at pH 2; type: physicochemical; conditions: buffer

For `Cc1cccc(C(CCC(N)C(=O)O)(c2ccccc2)c2ccccc2)c1` (racemic), the GI50 (BXPC-3) was 144 nM, the inhibition [1] was “inactive” and the inhibition [2] was “inactive”. For the same molecule, the solubility kinetic [3] was over 100 µM, the GI50 (HCT-116) was 99 nM and the solubility kinetic [4] was over 100 µM. For the same molecule, the GI50 (NCI-H1299) was 137 nM, the Time [5] was 28.7 days and the solubility kinetic [6] was over 100 µM.
